“Also recorded” adds a separate entry of the source.
How the values were obtained:
β1 receptors = β1 receptors (Homo sapiens, UniProt P08588); conditions: read-out: Ki for β1 receptors; cited from earlier work
[1] = system: HSCs and MPN-initiating cells; test: Competitive repopulation assays using limiting cell dilutions; assay type: in vivo
Experimental: For quantification of HSC, BM cells from treated mice were used for competitive repopulation assays using limiting cell dilutions. Briefly, CD45.1+ competitor BM cells […] were transplanted into lethally irradiated CD45.2+ recipient mice, after mix with […] and 4×10^3 donor BM cells. Peripheral blood chimerism was assessed by flow cytometry every 2-4 weeks. Mice were sacrificed 16 weeks after the transplant and the BM LSK cell chimerism was assessed by flow cytometry. A minimum of 5% CD45.2+ chimerism in the LSK cell compartment was considered as positive in recipients of control BM cells. In recipients of mutant BM, mice were considered as positive (“leukaemic”) above 50% CD45.2+ chimerism. The software LCalc (StemCell Technologies) was used for quantification of HSCs and MPN-initiating cells in control and mutant donor BM, respectively.

[2] = system: WT mice transplanted with control BM cells; test: In vivo treatment of WT mice transplanted with control BM cells (normal haematopoiesis); set-up: species or system mouse
Experimental: Age-matched, female wild-type C57BL/6J or Nes-gfp mice were used as recipients in bone marrow (BM) transplantation assays and for in vivo pharmacological treatments. Lethally irradiated (12 Gy) recipient mice were transplanted with 2×10^6 BM cells from Mx-Cre;JAK2V617F mice induced with plpC 8 weeks before, or from Cre-negative mice as disease-free controls. […] Vehicle (saline solution) daily injections were performed in the same way. Unless indicated, treatment was initiated 4 weeks posttransplant, when animals evidenced peripheral blood signs of MPN. Mice were randomly distributed prior to treatment initiation, and disease development was monitored over time in peripheral blood samples, using an automated blood counter. […] Mice were sacrificed at different time points and subjected to complete necropsy; BM and spleen were analysed by histology and flow cytometry; femora and skull were used for immunostainings, and haematopoietic and stromal cells were additionally used for functional assays ex vivo.
BM cell extraction, flow cytometry and fluorescence-activated cell sorting For haematopoietic cell recovery, bones were crushed in a mortar, filtered through a 40-μm mesh to obtain single cell suspensions, and depleted of red blood cells by lysis in 0.15 M NH4Cl for 10 min at 4° C. […] Biotinylated antibodies were detected with fluorochrome-conjugated streptavidin (BD Biosciences). […]

[3] = system: CD45+ haematopoietic cells from BM of Nes-gfp;Mx1-cre;JAK2-V617F mice and control littermates; test: Colony-forming units in culture (CFU-C) with drug added in vitro; assay type: cell-based, mouse; conditions: scored after one week in culture
Experimental: Colony-forming units in culture (CFU-C) assay was performed. […] Colonies of more than 50 cells were scored after 7 days of incubation at 37° C., 5% CO2, 20% O2 in a water-jacketed incubator. For CFU-F assays, BM CD45− Ter119− cells were plated into 6-well dishes and cultured in maintenance medium (α-MEM, 15% FCS with antibiotics). After 10-12 days in culture, adherent cells were fixed with 100% methanol and stained with Giemsa stain (Sigma) to reveal fibroblastic clusters. Colonies with more than 50 cells were scored as CFU-F.

[4] = system: Nes-creERT2;iDTA mice depleted in nestin+ cells; test: BRL37344 treatment of Nes-creERT2;iDTA mice depleted in nestin+ cells, transplanted with MPN BM cells; assay type: in vivo, mouse; conditions: BRL37344 for 6 weeks
Experimental: Age-matched, female wild-type C57BL/6J or Nes-gfp mice were used as recipients in bone marrow (BM) transplantation assays and for in vivo pharmacological treatments. […] Vehicle (saline solution) daily injections were performed in the same way. Unless indicated, treatment was initiated 4 weeks posttransplant, when animals evidenced peripheral blood signs of MPN. Mice were randomly distributed prior to treatment initiation, and disease development was monitored over time in peripheral blood samples, using an automated blood counter. […] The neuroprotective drug 4-methylcatechol (10 μg kg-1, i.p.) was injected once daily. The JAK inhibitor INCB018424 (S-Ruxilitinib, Abmole Bioscience) was administered by oral gavage (30 mg kg-1, twice per day separated 10-12 hours) in 0.5% hydroxypropylmethylcellulose (Sigma) after solubilisation in DMSO. The IL-1 receptor antagonist (Kineret, Sobi, Stockholm, Sweden) was administered by subcutaneous osmotic pumps (Alzet) infusing a continuous dosing of 40 mg kg-1 per day. Mice were sacrificed at different time points and subjected to complete necropsy; BM and spleen were analysed by histology and flow cytometry; femora and skull were used for immunostainings, and haematopoietic and stromal cells were additionally used for functional assays ex vivo.

β2 receptors = β2 receptors (Homo sapiens, UniProt P07550); conditions: read-out: Ki for β2 receptors; cited from earlier work
Sequence of β2 receptors (P07550 whole entry): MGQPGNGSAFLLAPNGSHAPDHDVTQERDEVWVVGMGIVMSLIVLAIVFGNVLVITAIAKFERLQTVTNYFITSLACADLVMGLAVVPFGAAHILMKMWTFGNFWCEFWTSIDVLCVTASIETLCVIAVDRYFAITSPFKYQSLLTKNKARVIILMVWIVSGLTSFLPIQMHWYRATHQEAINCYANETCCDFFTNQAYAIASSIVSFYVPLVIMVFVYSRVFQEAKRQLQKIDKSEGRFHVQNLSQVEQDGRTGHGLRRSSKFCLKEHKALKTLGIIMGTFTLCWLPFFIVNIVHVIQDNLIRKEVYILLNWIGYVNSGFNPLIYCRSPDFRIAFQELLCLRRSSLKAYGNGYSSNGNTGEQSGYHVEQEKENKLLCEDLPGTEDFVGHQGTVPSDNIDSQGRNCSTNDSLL

Sequence of β1 receptors (P08588 whole entry): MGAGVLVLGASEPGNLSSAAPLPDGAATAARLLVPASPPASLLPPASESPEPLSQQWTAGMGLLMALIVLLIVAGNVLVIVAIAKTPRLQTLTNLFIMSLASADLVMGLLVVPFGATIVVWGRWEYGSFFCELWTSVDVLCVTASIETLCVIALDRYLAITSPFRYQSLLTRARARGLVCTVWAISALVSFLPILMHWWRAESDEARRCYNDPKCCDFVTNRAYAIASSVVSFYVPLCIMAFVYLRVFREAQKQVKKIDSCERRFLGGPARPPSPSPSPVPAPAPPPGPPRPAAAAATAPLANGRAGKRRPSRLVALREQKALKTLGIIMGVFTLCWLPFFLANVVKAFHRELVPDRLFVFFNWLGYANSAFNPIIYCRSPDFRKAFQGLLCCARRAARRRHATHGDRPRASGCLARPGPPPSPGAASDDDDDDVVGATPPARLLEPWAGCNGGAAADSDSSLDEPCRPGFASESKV

C[C@H](Cc1ccc(OCC(=O)O)cc1)NC[C@H](O)c1cccc(Cl)c1 [BRL37344, [4-[(2R)-2-[[(2R)-2-(3-clorophenyl)-2-hydroxyethyl]amino]propyl]phenoxy]acetic acid]
Ki (β1 receptors): 1750 nM | reduction in leukemic stem cells (MPN-initiating cell frequency) ([1]; BM cells from BRL37344-treated versus vehicle-treated MPN mice, 16 weeks after transplantation): 4.5 fold | normal HSC BM number ([1]; control mice treated with BRL37344 over 4 weeks, starting 11 weeks after the transplant, non-significant): does not change | blood counts in wild-type mice ([2]; BRL37344 2 mg kg-1 i.p. twice a day): did not affect | normal HSCs / normal haematopoiesis ([2]; long-term BRL37344 treatment, 16 weeks, 2 mg kg-1 twice a day i.p.): did not compromise; also recorded: does not compromise | growth of cultured haematopoietic progenitors (CFU-C) [3]: neither 4-methylcatechol nor BRL37344 affected | therapeutic effect of BRL37344 after in vivo depletion of nestin+ cells (blood counts) ([4]; Nes-creERT2;iDTA versus control mice): reduces | leukocytosis in mice depleted in nestin+ cells ([4]; started 2 weeks after transplantation combined with tamoxifen): not rescued | Ki (β2 receptors): 1120 nM

Source: patent publication US10335380B2, “Compounds suitable for the treatment of myeloproliferative neoplasms as well as methods for the diagnosis/prognosis of myeloproliferative neoplasms” (CNIC Fundacion Centro Nacional De investigaciones …, priority 2013, dated 2019)
